Earlier results as cited in patent US11219621B2, “Methods for treating immunodeficiency disease” (X4 Pharmaceuticals, Inc., priority 2015, dated 2022).

Target: T1, CXCR7 (Homo sapiens, UniProt P25106)
T1 construct: expressed in transfected cells
Parameters: Inhibition of SDF-1α binding to CXCR7: dose or concentration left out as unconfirmed
Conditions: cited from earlier work

T1 sequence (P25106 whole entry): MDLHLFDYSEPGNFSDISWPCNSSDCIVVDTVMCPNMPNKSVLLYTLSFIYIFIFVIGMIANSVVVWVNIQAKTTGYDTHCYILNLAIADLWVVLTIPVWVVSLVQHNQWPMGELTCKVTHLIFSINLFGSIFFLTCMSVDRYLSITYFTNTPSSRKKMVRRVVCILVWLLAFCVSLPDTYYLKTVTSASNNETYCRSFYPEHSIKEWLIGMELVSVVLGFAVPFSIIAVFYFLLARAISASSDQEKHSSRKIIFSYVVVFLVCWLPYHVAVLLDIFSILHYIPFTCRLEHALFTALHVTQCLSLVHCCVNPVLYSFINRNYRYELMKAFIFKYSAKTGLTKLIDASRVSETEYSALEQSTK

## NCCCCN(Cc1nc2ccccc2[nH]1)[C@H]1CCCc2cccnc21 [X4P-001]
CXCR7, Cf2Th.CXCR7, SDF-1α/CXCL12, ligand binding, read-out: IC50 AMD11070
  IC50: > 10 µM
  Inhibitory effect on SDF-1α binding to CXCR7: little or no inhibitory effect
The maximum concentration tested
  Inhibition of SDF-1α binding to CXCR7: did not inhibit
